The values that follow come from patent US11492347B2 (ENYO PHARMA, priority 2018, dated 2022).

As a reminder, the pIC50 is the negative decadic logarithm of the IC50, by convention in mol/L. Read a high pIC50 as a low IC50.

pIC50: −log10 of the molar value.

Experiment [1] concerns H1N1 (influenza A/New Caledonia/20/99). The experiment in a line: microbe, parasite or virus in culture. It counts as cell-based. The note with it: H1N1, A549, 48 h.
Experiment [2] has as its target T1, CISD2 Gene Product (NAF-1) (Homo sapiens, UniProt Q8N5K1).
T1 sequence (Q8N5K1 57-135 limits assumed): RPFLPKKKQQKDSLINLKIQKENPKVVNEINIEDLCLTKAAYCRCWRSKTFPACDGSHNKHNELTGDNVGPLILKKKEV
The experiment in a line: Stability of Fe-S cluster binding of purified NEET protein (absorbance 458 nm). Conditions: NAF-1 20 μM, compound 60 μM; for Time (in minutes) to achieve 50% loss of bound cluster (Absorbance 458 nm): pH 6, 37° C., run time 500 minutes, vehicle control 310 or 210; for Residual cluster bound at end of experiment (Percentage Absorbance 458 nm at time zero): pH 6, at 500 minutes, vehicle control 3%. Format: biochemical. The method in brief:
(§1)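 Purified NEET protein (20 μM) with compound (60 μM, 1:3 molar ratio) in 100 mM Bis-Tris pH 6, 100 mM NaCl, 66 μM DMSO at 37 °C; 458 nm absorbance decay read every 5 min for 500 min (NAF-1) or 180 min (mitoNEET, Miner2). Outputs: time to 50% absorbance loss and residual % bound cluster, versus protein alone.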

The target in experiment [3] is T2, CISD1 Gene Product (mitoNEET) (Homo sapiens, UniProt Q9NZ45).
T2 sequence (Q9NZ45 33-108 limits assumed): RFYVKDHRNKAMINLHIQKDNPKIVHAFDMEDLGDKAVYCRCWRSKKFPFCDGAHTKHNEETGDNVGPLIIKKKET
The description is as above. It counts as biochemical. Conditions: for Time (in minutes) to achieve 50% loss of bound cluster (Absorbance 458 nm) / Residual cluster bound at end of experiment (Percentage Absorbance 458 nm at time zero): mitoNEET 20 μM, compound 60 μM; for Time (in minutes) to achieve 50% loss of bound cluster (Absorbance 458 nm): pH 6, 37° C., run time 180 minutes, vehicle control 80; for Residual cluster bound at end of experiment (Percentage Absorbance 458 nm at time zero): pH 6, at 180 minutes, vehicle control 16%. A digest of the protocol:
as §1

Take `CC1(C)Cc2c(sc(NC(=O)c3ccc(N4CCOCC4)cc3)c2C(=O)O)C(C)(C)C1` [Compound #36, 5,5,7,7-Tetramethyl-2-[(4-morpholinobenzoyl)amino]-4,6-dihydrobenzothiophene-3-carboxylic acid]: the pIC50 in experiment [1] was 7.40. For the same molecule, in experiment [2], the “Time (in minutes) to achieve 50% loss of bound cluster (Absorbance 458 nm)” value is 210 (210) minutes and the “Residual cluster bound at end of experiment (Percentage Absorbance 458 nm at time zero)” value is 30% (3%). In addition, in experiment [3], the “Time (in minutes) to achieve 50% loss of bound cluster (Absorbance 458 nm)” value is 98 (80) minutes and the “Residual cluster bound at end of experiment (Percentage Absorbance 458 nm at time zero)” value is on record as 36 % (16%).
The corresponding values for `CC1(C)CCc2sc(NC(=O)c3ccccc3)c(C(=O)O)c21` [Compound #37, 2-Benzamido-4,4-dimethyl-5,6-dihydrocyclopenta[b]thiophene-3-carboxylic acid] are 6.71, 280 (210) minutes, 3% (3%), 85 (80) minutes and 23% (16%).
Molecule `COC1CN(c2ccc(C(=O)Nc3sc4c(c3C(=O)O)CC(C)(C)CC4(C)C)cc2)C1` [Compound #58, 2-[[4-(3-Methoxyazetidin-1-yl)benzoyl]amino]-5,5,7,7-tetramethyl-4,6-dihydrobenzothiophene-3-carboxylic acid] gave a pIC50 in experiment [1] of 9.05. The results for the “Time (in minutes) to achieve 50% loss of bound cluster (Absorbance 458 nm)” value in experiment [2] and in experiment [3] were 280 (310) minutes and 100 (80) minutes, respectively. Moreover, the “Residual cluster bound at end of experiment (Percentage Absorbance 458 nm at time zero)” value is 39% (3%) in experiment [2] and 36% (16%) in experiment [3]. The “Stabiliser or destabiliser of Fe-S cluster binding by CISD1 Gene Product (mitoNEET)” value in experiment [3] (time to 50% cluster loss changed by more than 25% compared to the Control sample, at the concentrations tested) is on record as “stabilisers”.
